Results reported in US4353910A, “Derivatives of 4,5,6,7-tetrahydroisoxazolo [5,4-c] pyridine-3-one, pharmaceutical compositions and methods of treatment” (priority 1981, dated 1982).

Columns and labels:
[1] = system: isoniazide-induced seizures in mice; test: Isoniazide antagonism (isoniazide 300 mg/kg s.c. induced convulsions); assay type: in vivo, mouse; set-up: unit: mg/kg; conditions: i.p. test compound, table does not say whether MED or ED50
Method: Isoniazide 300 mg/kg s.c.
Five mice are used for each dose level.
Immediately after administration of test substance, isoniazide 300 mg/kg is injected s.c. This dose of isoniazide induces intermittent tonic clonic seizures within 60 minutes.
The calculations are performed as an "on line procedure" on the EDP-terminal. […] ED50 is determined as the dose in mg/kg which increases the time 50%.

mouse pain threshold = test: Mouse grid shock (analgesic effect, pain threshold); assay type: in vivo; conditions: male mice, + not defined
Method: The mouse grid consists of a perspex cage with wire grid bottom and a perspex lid, on which is placed a microphone sensitive to the frequency of a mouse-squeak. A stimulator with motordriven potentiometer applies a sequence of square wave impulses of continuously increasing milliamperage to the grid. Frequency of impulses 20 cycles/sec., duration 5 msec. Milliamperage is recorded on a digital amperemeter connected to the stimulator. Activation of the microphone by a mouse-squeak cuts off the current and the final milliamperage appear on the meter.
Five mice are used for each dose level. Each mouse serves as its own control.
Prior to the administration of test substance the animals are placed on the grid one at a time and the pain threshold is determined by increasing the current intensity until the mouse squeaks. The pain threshold may be read on the milliamperemeter.
Fifteen minutes and 30 minutes after administration of test substance the mice are tested again and the pain thresholds recorded.
Analgesic effect is present when the pain threshold is increased over the pre-dosing value (control value). The results are stated as % increase in pain threshold calculated on the basis of the control value. The registration can also be done as an on-line procedure. […]

[2] = target: ^3 H-GABA binding to rat brain membranes; test: ^3 H-GABA binding to rat brain membranes; conditions: 10 nM ^3 H-GABA, on ice 5 min
Method: 0.32 M sucrose (made fresh every day)
0.05 N Tris-citrate buffer (pH ~6.8)
^3 H-GABA=aminobutyric acid, γ-2,3-^3 H(N) approx.
35 Ci/mmol, from New England Nuclear
(diluted daily to 1 μM in water)
A. Preparation of membranes
Rats are killed by a blow to their head, exsanguinated and their brains removed and cooled in icecold saline. After rinsing and weighing two brains are pooled and homogenized in 40 ml of icecold 0.32 M sucrose using a motor-driven homogenizer with teflon pestle (6 strokes up and down, slow speed rotation).
The samples are centrifuged for 10 min. at 900 g, and thereafter the supernatants are centrifuged for 20 min. at 17,000 g (4° C.). […]
Incubation tubes in duplicate receive on ice 780 μl of water, 200 μl of drug dissolved in water, 20 μl of 1 μM ^3 H-GABA (final concentration of ^3 H-GABA in tubes=10 nM) and 1000 μl of the membrane suspension. […] Ten ml of Instagel or Lumagel containing 10 ml of acetic acid per 1 are added, and the radioactivity are determined by liquid scintillation counting. The unspecific binding of ^3 H-GABA is determined by incubating the samples with 1 mM of GABA. […]
The means of controls and 1 mM GABA samples are calculated. […] The IC50-values are determined as the concentrations, at which the binding is 50 percent of the total binding minus the unspecific binding.

[3] = THIP, European Patent Application No. 78 100 191.2; cited from earlier work
[4] = THIP, prior art; cited from earlier work

With `CNC(=O)n1oc2c(c1=O)CCNC2` [Example 6, 2-(N-methylcarbamoyl)-4,5,6,7-tetrahydroisoxazolo[5,4-c]pyridine-3-one] the Isoniazide antagonism [1] was 1.3.
In the case of `O=C(NC1CCCCC1)n1oc2c(c1=O)CCNC2` [Example 7, 2-(N-cyclohexylcarbamoyl)-4,5,6,7-tetrahydroisoxazolo[5,4-c]pyridine-3-one], the Isoniazide antagonism [1] is reported as 2.1.
In the case of `CC(=O)n1oc2c(c1=O)CCNC2` [Example 3, 2-Acetyl-4,5,6,7-tetrahydroisoxazolo[5,4-c]-pyridine-3-one], the Isoniazide antagonism [1] is reported as “weak effect”, the Mouse grid shock (mouse pain threshold) is reported as “no effect” and the IC50 [2] is reported as > 100 µM.
Compound `NC(=O)n1oc2c(c1=O)CCNC2` [Example 5, 2-Carbamoyl-4,5,6,7-tetrahydroisoxazolo[5,4-c]-pyridine-3-one] has an Isoniazide antagonism [1] of 5.8.
In the case of `Oc1noc2c1CCNC2` [THIP, 4,5,6,7-tetrahydroisoxazolo[5,4-c]pyridine-3-ol], the Isoniazide antagonism [1] is listed as 1.3, the GABA-related activity [3] is listed as “having GABA-related activity” and the duration of action [4] is listed as “relatively shortacting”. The side effects [4] was “some side effects”.
